The target of test [1] is T1, SpEgtUC (Streptococcus pneumoniae, UniProt A0A0H2ZQB9).
T1 construct: gene egtUBC; N-terminal His6-SUMO cleaved off; expressed in E. coli BL21(DE3); monomer
Description: NMR chemical shift perturbation titration. Type of test: binding. Conditions: read-out: Ka (M^-1) (converted). The source says:
NMR chemical shift perturbation titration on SpEgtUC

In test [2] the target is T2, SaEgtUC (Staphylococcus aureus, UniProt A0A0H2XK79).
T2 construct: gene egtUBC; N-terminal His6-SUMO cleaved off; expressed in E. coli BL21(DE3)
T2 sequence (A0A0H2XK79 233-504): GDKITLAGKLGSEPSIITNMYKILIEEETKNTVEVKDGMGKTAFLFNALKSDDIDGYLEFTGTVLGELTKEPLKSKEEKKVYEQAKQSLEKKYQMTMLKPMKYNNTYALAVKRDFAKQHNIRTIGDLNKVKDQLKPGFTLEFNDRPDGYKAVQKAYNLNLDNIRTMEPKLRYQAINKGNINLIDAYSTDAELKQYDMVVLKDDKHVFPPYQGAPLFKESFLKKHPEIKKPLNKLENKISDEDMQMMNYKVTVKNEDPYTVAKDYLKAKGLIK
Description: intrinsic tyrosine fluorescence titration. The note with it: read-out: Ka (M^-1) (converted). In kind it is binding. The source says: intrinsic tyrosine fluorescence titration on SaEgtUC

Test [3] addresses T3, LmEgtUC (Listeria monocytogenes, UniProt Q8Y775).
T3 construct: gene egtUBC; N-terminal His6-SUMO cleaved off; expressed in E. coli BL21(DE3); the lmo locus tag is of strain EGD-e, strain used printed as 10403S
Description: intrinsic tyrosine fluorescence titration. In kind it is binding. Conditions: read-out: Ka (M^-1) (converted). The text has this: intrinsic tyrosine fluorescence titration on LmEgtUC

Test [4] has as its target T4, EfEgtUC (Enterococcus faecalis, UniProt Q837Z8).
T4 construct: gene egtUBC; N-terminal His6-SUMO cleaved off; expressed in E. coli BL21(DE3)
T4 sequence (Q837Z8 233-505): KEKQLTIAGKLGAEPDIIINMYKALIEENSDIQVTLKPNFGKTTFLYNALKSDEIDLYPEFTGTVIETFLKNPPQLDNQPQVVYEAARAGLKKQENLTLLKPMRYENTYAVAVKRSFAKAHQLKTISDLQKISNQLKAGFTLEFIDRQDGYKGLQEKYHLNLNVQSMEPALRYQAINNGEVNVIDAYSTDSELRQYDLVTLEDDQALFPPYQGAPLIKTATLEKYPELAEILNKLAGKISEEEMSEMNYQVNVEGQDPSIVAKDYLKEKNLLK
Description: intrinsic tyrosine fluorescence titration. Type of test: binding. Conditions: read-out: Ka (M^-1) (converted). The source says: intrinsic tyrosine fluorescence titration on EfEgtUC

Test [5] addresses T1, SpEgtUC. Description: isothermal titration calorimetry. In kind it is binding. The note with it: read-out: Ka (M^-1) (converted). The text has this: isothermal titration calorimetry on SpEgtUC
Background: Isothermal titration calorimetry measures the heat released or taken up as one component is titrated into another.

For test [6], the target named is T5, SpEgtUC (Streptococcus pneumoniae, UniProt A0A0H2ZQB9, G244F).
T5 construct: gene egtUBC
Description: biochemical.

The target of test [7] is T6, SpEgtUC (Streptococcus pneumoniae, UniProt A0A0H2ZQB9, Y419F).
T6 construct: gene egtUBC
Description: biochemical.

Test [8] addresses T7, SpEgtUC (Streptococcus pneumoniae, UniProt A0A0H2ZQB9, E375Q).
T7 construct: gene egtUBC
Description: biochemical.

Test [9] deals with T8, SpEgtUCCTT (Streptococcus pneumoniae, UniProt A0A0H2ZQB9, G502V/L503C).
T8 construct: gene egtUBC
Description: biochemical.

Test [10] concerns the target T9, SpEgtUC (Streptococcus pneumoniae, UniProt A0A0H2ZQB9, F293Y).
T9 construct: gene egtUBC
Description: biochemical.

The target of test [11] is EgtUA (Streptococcus pneumoniae, UniProt A0A0H2ZLL3).

pKd: −log10 of the molar value.

T1 sequence (A0A0H2ZQB9 233-506): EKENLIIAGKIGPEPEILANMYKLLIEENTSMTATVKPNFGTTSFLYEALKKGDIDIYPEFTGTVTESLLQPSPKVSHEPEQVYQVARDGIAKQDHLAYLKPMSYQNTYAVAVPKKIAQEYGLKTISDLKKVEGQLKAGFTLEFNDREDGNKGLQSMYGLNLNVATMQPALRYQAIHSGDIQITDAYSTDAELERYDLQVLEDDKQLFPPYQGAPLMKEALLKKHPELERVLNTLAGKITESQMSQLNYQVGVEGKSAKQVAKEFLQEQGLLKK
EgtUA, sequence (A0A0H2ZLL3 whole entry): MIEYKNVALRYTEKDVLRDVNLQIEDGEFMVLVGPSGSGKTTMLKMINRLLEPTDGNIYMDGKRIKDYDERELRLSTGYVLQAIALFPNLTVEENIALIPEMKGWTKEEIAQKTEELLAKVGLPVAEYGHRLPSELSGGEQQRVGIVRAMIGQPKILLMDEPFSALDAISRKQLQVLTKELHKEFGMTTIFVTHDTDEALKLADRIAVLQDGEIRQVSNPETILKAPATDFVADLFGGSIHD
T5 sequence (A0A0H2ZQB9 233-506 G244F): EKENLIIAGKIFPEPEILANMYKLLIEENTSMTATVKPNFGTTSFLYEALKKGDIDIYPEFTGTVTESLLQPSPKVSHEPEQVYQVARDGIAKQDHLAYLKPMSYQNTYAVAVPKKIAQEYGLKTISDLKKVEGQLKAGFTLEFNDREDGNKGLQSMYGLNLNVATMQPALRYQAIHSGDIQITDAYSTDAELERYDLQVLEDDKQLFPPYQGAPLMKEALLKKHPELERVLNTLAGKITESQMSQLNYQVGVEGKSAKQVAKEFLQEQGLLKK
T8 sequence (A0A0H2ZQB9 233-503 G502V/L503C): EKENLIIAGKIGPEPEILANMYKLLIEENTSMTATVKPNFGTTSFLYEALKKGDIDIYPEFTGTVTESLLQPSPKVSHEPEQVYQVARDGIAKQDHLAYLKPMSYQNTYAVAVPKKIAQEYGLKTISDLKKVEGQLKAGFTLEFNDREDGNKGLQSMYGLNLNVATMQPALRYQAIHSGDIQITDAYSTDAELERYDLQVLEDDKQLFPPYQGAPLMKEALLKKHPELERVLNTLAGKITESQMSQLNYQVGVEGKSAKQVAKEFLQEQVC
T9 sequence (A0A0H2ZQB9 233-506 F293Y): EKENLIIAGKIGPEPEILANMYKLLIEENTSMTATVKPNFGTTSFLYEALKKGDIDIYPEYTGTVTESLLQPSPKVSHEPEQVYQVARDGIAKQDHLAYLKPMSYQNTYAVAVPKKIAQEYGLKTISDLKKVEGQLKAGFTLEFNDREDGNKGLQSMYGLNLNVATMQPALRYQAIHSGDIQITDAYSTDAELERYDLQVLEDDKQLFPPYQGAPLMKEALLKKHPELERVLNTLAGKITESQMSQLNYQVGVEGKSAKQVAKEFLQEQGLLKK
T6 sequence (A0A0H2ZQB9 233-506 Y419F): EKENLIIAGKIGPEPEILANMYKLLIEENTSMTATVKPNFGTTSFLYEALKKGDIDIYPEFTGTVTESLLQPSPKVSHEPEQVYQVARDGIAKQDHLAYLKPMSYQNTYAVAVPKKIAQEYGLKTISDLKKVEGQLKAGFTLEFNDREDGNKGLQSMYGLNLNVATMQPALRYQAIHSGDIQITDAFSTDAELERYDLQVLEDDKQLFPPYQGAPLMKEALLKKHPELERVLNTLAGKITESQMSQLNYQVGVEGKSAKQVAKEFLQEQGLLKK
T3 sequence (Q8Y775 231-504): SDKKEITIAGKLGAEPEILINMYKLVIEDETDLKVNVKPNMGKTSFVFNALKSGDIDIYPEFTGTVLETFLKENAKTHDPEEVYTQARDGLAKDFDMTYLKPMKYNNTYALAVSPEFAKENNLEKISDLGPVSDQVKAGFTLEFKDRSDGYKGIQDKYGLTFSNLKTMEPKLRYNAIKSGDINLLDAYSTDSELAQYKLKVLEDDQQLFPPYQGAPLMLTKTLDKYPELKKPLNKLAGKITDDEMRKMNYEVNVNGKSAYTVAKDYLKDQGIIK
T7 sequence (A0A0H2ZQB9 233-506 E375Q): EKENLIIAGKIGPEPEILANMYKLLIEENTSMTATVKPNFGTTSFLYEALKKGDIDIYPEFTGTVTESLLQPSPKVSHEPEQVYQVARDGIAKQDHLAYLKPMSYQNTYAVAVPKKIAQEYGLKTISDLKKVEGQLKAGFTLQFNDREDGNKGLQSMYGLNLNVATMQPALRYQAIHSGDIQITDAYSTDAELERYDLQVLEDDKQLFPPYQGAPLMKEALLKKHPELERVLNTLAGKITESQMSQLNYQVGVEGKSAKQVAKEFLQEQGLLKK

Regarding `C[N+](C)(C)CC(=O)[O-]` [GB, glycine betaine], the Kd in [1] was greater than 33300 µM.

One may read the pKd as the negative decadic logarithm of the Kd, by convention in mol/L. Low values mean a large Kd, high ones a small Kd. As to `C[N+](C)(C)[C@@H](Cc1c[nH]c(=S)[nH]1)C(=O)[O-]` [ET, L-ergothioneine], the Kd is 0.217 µM in test [2], 0.0556 µM in test [3], 0.0625 µM in test [4] and 0.0588 µM in test [5]. Further, the pKd was 5.30 in [6]; 6.20 in test [7]; 4.60 in test [8]; 7.28 in test [9]; 6.30 in test [10].

With `Nc1ncnc2c1ncn2[C@@H]1O[C@H](COP(=O)(O)OP(=O)(O)OP(=O)(O)O)[C@@H](O)[C@H]1O` [ATP], the “in vitro ATPase activity” value in test [11] is listed as “ATPase activity of WT vs. mutant EgtUA proteins in vitro”.

On to `C[N+](C)(C)[C@@H](Cc1cnc[nH]1)C(=O)[O-]` [HER, L-hercynine], for which the Kd in test [1] was 1670 µM.

For the origin of these results see article PMC9732360, “Discovery and structure of a widespread bacterial ABC transporter specific for ergothioneine” (Nature Communications, 2022).
